According to article PMC4769088, “Antifungal Activity and Action Mechanism of Histatin 5-Halocidin Hybrid Peptides against Candida ssp” (PLoS ONE, 2016):
In brackets after ≈: the same amount, converted by molar mass. Where a SMILES comes first, the peptide text is derived from it. Bridges are numbered along the chain shown (N, C = ends). Roman numbers before positions name the chains, in order.

Columns and labels:
[1] = test system: pustulan (β-1,6-glucan polymer), C. albicans cell wall component; assay: Binding/radial diffusion assay with pustulan; assay type: cell-based; settings: peptide final 180 μg/ml, pre-incubated 2 h at 37°C, radial diffusion assay
Method: The candidacidal activities of the peptides were tested by using standard microdilution plate assays, radial diffusion assays and broth dilution assay slightly modified from the procedure recommended by the National Committee for Clinical Laboratory Standards. For the candidacidal assays, C. albicans cells were grown in YPD medium and washed twice with 10 mM sodium phosphate buffer (NaPB; Na2HPO4, NaH2PO4, pH 7.4). The cells (1 x 10^6) were then mixed with different concentrations of peptides and incubated at 30°C with constant shaking for 60 min. For energy depletion experiments, cells were pre-incubated with 10 mM NaPB containing 5 mM NaN3 at 30°C for 60 min before the addition of peptides. The cell suspensions were diluted in 10 mM NaPB and aliquots of 500 cells were spread onto YPD agar plates then incubated for 24 h at 30°C to visualize the surviving colonies. Cell survival was expressed as a percentage of that for the control, and the loss of viability was calculated as [1 x (number of colonies from peptide-treated cells/number of colonies from control cells)] x 100. […] The clear-zone diameters were measured to the nearest 0.1 mm and graphed against the peptide concentration. […] The numbers of yeasts were counted using a hemocytometer. […] The antifungal activities were evaluated after 24 h of incubation at 30°C by the observation of visible turbidity the wells. […]

L929 cells = assay: Cytotoxic activity (WST-1 cell viability assay); assay type: cell-based, mouse; settings: 24 h treatment, WST-1, OD 460 nm
Method: The cytotoxicity of hybrid peptides was evaluated in mouse […] cells (L929, Korean Collection for Type Cultures, KCTC). L929 cells in RPMI1640-10% FBS (100 μL, 3 × 10^5 cells/ml) were seeded in 96-well plates and cultured at 37°C for 24 h in a 5% CO2 incubator. The L929 cells were treated with peptides at predetermined concentrations for 24 h, and 10 μl of EZ-Cytox Cell Viability Assay solution WST-1® (Daeil Lab Service, Korea) were added to each well. Three hours later, the cytotoxicity of peptides against L929 cells was assessed by measuring the optical density at 460 nm using a Perkin Elmer 2030 Reader (Victor X3).

| Structure (SMILES) | pustulan concentration at which activity began to decrease [1] [mg/mL] | CC50 (L929 cells) [µg/mL] |
| --- | --- | --- |
| CC(C)C[C@H](NC(=O)[C@@H](N)Cc1c[nH]c2ccccc12)C(=O)N[C@@H](CC(N)=O)C(=O)N[C@@H](C)C(=O)N[C@@H](CCCCN)C(=O)N[C@@H](CCCNC(=N)N)C(=O)N[C@@H](Cc1c[nH]cn1)C(=O)N[C@@H](Cc1c[nH]cn1)C(=O)NCC(=O)N[C@@H](Cc1ccc(O)cc1)C(=O)N[C@@H](CCCCN)C(=O)N[C@@H](CSSC[C@H](NC(=O)[C@H](CCCCN)NC(=O)[C@H](Cc1ccc(O)cc1)NC(=O)CNC(=O)[C@H](Cc1c[nH]cn1)NC(=O)[C@H](Cc1c[nH]cn1)NC(=O)[C@H](CCCNC(=N)N)NC(=O)[C@H](CCCCN)NC(=O)[C@H](C)NC(=O)[C@H](CC(N)=O)NC(=O)[C@H](CC(C)C)NC(=O)[C@@H](N)Cc1c[nH]c2ccccc12)C(=O)N[C@@H](CCCCN)C(=O)N[C@@H](Cc1ccccc1)C(=O)N[C@@H](Cc1c[nH]cn1)C(N)=O)C(=O)N[C@@H](CCCCN)C(=O)N[C@@H](Cc1ccccc1)C(=O)N[C@@H](Cc1c[nH]cn1)C(N)=O [di-WP2] (I: H-WLNAKRHHGYKCKFH-NH2 / II: H-WLNAKRHHGYKCKFH-NH2; disulfide I:12-II:12 (inferred); N-terminus assumed) | 20 |  |
| CC(C)C[C@H](NC(=O)CNC(=O)[C@H](Cc1c[nH]cn1)NC(=O)[C@H](Cc1c[nH]cn1)NC(=O)[C@H](CC(C)C)NC(=O)[C@H](CC(C)C)NC(=O)[C@H](C)NC(=O)[C@H](CC(N)=O)NC(=O)[C@H](CC(C)C)NC(=O)[C@@H](N)Cc1c[nH]c2ccccc12)C(=O)N[C@@H](CC(N)=O)C(=O)N[C@@H](CSSC[C@H](NC(=O)[C@H](CC(N)=O)NC(=O)[C@H](CC(C)C)NC(=O)CNC(=O)[C@H](Cc1c[nH]cn1)NC(=O)[C@H](Cc1c[nH]cn1)NC(=O)[C@H](CC(C)C)NC(=O)[C@H](CC(C)C)NC(=O)[C@H](C)NC(=O)[C@H](CC(N)=O)NC(=O)[C@H](CC(C)C)NC(=O)[C@@H](N)Cc1c[nH]c2ccccc12)C(=O)N[C@@H](C)C(=O)N[C@@H](CCCCN)C(=O)NCC(=O)N[C@H](C(=O)N[C@@H](CC(C)C)C(=O)N[C@@H](C)C(N)=O)C(C)C)C(=O)N[C@@H](C)C(=O)N[C@@H](CCCCN)C(=O)NCC(=O)N[C@H](C(=O)N[C@@H](CC(C)C)C(=O)N[C@@H](C)C(N)=O)C(C)C [di-18Hc, reference compound] (I: H-WLNALLHHGLNCAKGVLA-NH2 / II: H-WLNALLHHGLNCAKGVLA-NH2; disulfide I:12-II:12 (inferred); N-terminus assumed) | 20 | 72.385 (≈ 18.8 µM) |
